From US8921382B2, “Thiazolo[5,4-d] pyrimidines and their use as agrochemicals” (Dow AgroSciences, LLC., priority 2010, dated 2014) come the findings set out here.

Series [1] concerns Caenorhabditis elegans. As to conditions: Application rate 10 micrograms per milliliter agar; evaluated after 24 h at 20° C.
Method: The activity of the compounds against Caenorhabditis elegans was determined by dissolving compounds in DMSO, then applying them to petri dishes containing Nematode Growth Medium agar to a final concentration of 10 micrograms (μg) compound per milliliter agar. Escherichia coli bacteria were grown on the plates to provide a food source for the larvae of Caenorhabditis elegans. The bacteria were heat-killed at 65° C. before compounds were added to the plates.
The plates with compound and heat-killed bacteria were infested with 10 microliter (μL) drops containing eggs from wild-type Caenorhabditis elegans worms. Adult worms were dissolved in potassium hydroxide (KOH) and bleach and washed in Ringers solution to generate the egg suspension. Each compound was screened with approximately 400 eggs, divided between two petri dishes. Egg hatching was evaluated after 24 h at 20° C. Mortality was averaged over the two plates.
The subject of series [2] is Pyricularia oryzae. Description: whole plant or invertebrate. Particulars: foliar, read-out: Activity against Fungal Diseases PYRIOR (percent disease control). It counts as in vivo.
In series [3] the test system is Septoria tritici. The series can be described thus: Septoria Blotch of Wheat foliar spray test, inoculated one day after treatment. It is filed as in vivo. As to conditions: Zymoseptoria tritici, wheat plants, read-out: Activity against Fungal Diseases SEPTTR (percent disease control); for pest or weed control at 200 ppm: applied to foliage at 200 ppm; for pest or weed control at 25 ppm: Tested at 25 ppm. Here is the method: (§1) Fungicide activity data are the level (in percent) at which the given disease was controlled when the given compound was applied to the foliage of the plants at 200 ppm. In a few cases (noted in the table) the compound was applied to the plants at 25 ppm or 3 ppm. The plants were inoculated with the fungus one day after treatment. ***=80-100% control; **=50-79% control; *=0-49% control. […] The activity of the compounds as effective fungicides was determined by applying the compounds to plants and observing control of fungal disease. […] All plants were inoculated with spores of the fungus the day after treatment, then incubated in an environment conducive to disease development. Disease severity was evaluated 4 to 25 days (d) later, depending on the speed of disease development. The following experiments were performed in the laboratory to determine the fungicidal efficacy of the compounds of the invention. […] Each pot contained 3-10 seedlings. These plants were sprayed until wet with the formulated test compound. On the following day, the leaves were inoculated with an aqueous spore suspension of Septoria tritici and the plants were kept in high humidity (one day in a dark dew chamber followed by two days in a lighted dew chamber) to permit spores to germinate and infect the leaf. The plants were then transferred to a greenhouse until disease developed on untreated control plants. […] The effectiveness of the test compounds at controlling disease when sprayed on leaves was determined by assessing the severity of disease on treated plants, then converting the severity to percent control based on the level of disease on untreated, inoculated plants.

Series [4] deals with Puccinia recondita tritici. The series can be described thus: Leaf Rust of Wheat foliar spray test, inoculated one day after treatment. As to conditions: applied to foliage at 200 ppm, wheat plants, read-out: Activity against Fungal Diseases PUCCRT (percent disease control). It is filed as in vivo. Here is the method:
as §1, with “3-8” for “3-10”, “compounds.” for “compound.”, “Puccinia recondita” for “Septoria”, “overnight” for “(one day in a dark dew chamber followed by two days in a lighted dew chamber)”

The subject of series [5] is Pseudoperonospora cubensis. Description: Cucumber Downy Mildew foliar spray test, inoculated one day after treatment. It counts as in vivo. Particulars: applied to foliage at 200 ppm, cucumber plants, read-out: Activity against Fungal Diseases PSPECU (percent disease control). Here is the method: Fungicide activity data are the level (in percent) at which the given disease was controlled when the given compound was applied to the foliage of the plants at 200 ppm. In a few cases (noted in the table) the compound was applied to the plants at 25 ppm or 3 ppm. The plants were inoculated with the fungus one day after treatment. ***=80-100% control; **=50-79% control; *=0-49% control. […] The activity of the compounds as effective fungicides was determined by applying the compounds to plants and observing control of fungal disease. […] All plants were inoculated with spores of the fungus the day after treatment, then incubated in an environment conducive to disease development. Disease severity was evaluated 4 to 25 days (d) later, depending on the speed of disease development. The following experiments were performed in the laboratory to determine the fungicidal efficacy of the compounds of the invention. Cucumber Downy Mildew (causal agent Pseudoperonospora cubensis; Bayer code […]): Cucumber plants (variety 'Bush Champion' or 'Bush Pickle Hybrid') were grown from seed in a soil-less peat-based potting mixture (Metromix) until the first true leaf was 20-80% expanded. Each pot contained 1 seedling. These plants were sprayed until wet with the formulated test compound. On the following day, the leaves were inoculated with an aqueous suspension of downy mildew sporangia and the plants were kept in high humidity for one day to permit sporangia to germinate and infect the leaf. The plants were then incubated in a growth chamber until disease developed on untreated control plants. […] The effectiveness of the test compounds at controlling disease when sprayed on leaves was determined by assessing the severity of disease on treated plants, then converting the severity to percent control based on the level of disease on untreated, inoculated plants.

As a reminder, the melting point is the temperature, or range, at which the solid turns liquid.

In the case of `COc1cc(CCNc2ncnc3scnc23)ccc1O` [Compound 12, 2-methoxy-4-[2-(thiazolo[5,4-d]pyrimidin-7-ylamino)-ethyl]-phenol], the melting point lay within 151 to 154 °C.

In series [1], ivermectin yielded a Percent mortality of 95%.

Turning to `Cc1cc(Oc2cc(C(F)(F)F)ccn2)c(C)cc1CCNc1ncnc2scnc12` [Compound 13, {2-[2,5-dimethyl-4-(4-trifluoromethylpyridin-2-yloxy)-phenyl]-ethyl}-thiazolo[5,4-d]pyrimidin-7-ylamine], the pest or weed control at 200 ppm in series [2], in series [3], in series [4] and in series [5] was 80 to 100% throughout.

For the molecule `COc1cc(CCNc2ncnc3scnc23)ccc1Oc1cc(C(F)(F)F)cc[n+]1[O-]` [Compound 42, {2-[3-methoxy-4-(1-oxy-4-trifluoromethylpyridin-2-yloxy)-phenyl]-ethyl}-thiazolo[5,4-d]pyrimidin-7-ylamine], the pest or weed control at 200 ppm in series [2], in series [3], in series [4] and in series [5] was 80 to 100% each time.

Consider `COc1cc(CCNc2ncnc3scnc23)ccc1Oc1ccncc1C(F)(F)F` [Compound 31, {2-[3-methoxy-4-(3-trifluoromethylpyridin-4-yloxy)-phenyl]-ethyl}-thiazolo[5,4-d]pyrimidin-7-ylamine], for which the pest or weed control at 200 ppm was in the range of 80 to 100% in series [2], 80 to 100% in series [4] and 50 to 79% in series [5]. In addition, the pest or weed control at 25 ppm in series [3] was 80 to 100%.

Consider `Fc1cnc(C(F)(F)F)c(F)c1Oc1ccc(CCNc2ncnc3scnc23)cc1` [Compound 33, {2-[4-(3,5-difluoro-2-trifluoromethylpyridin-4-yloxy)-phenyl]-ethyl}-thiazolo[5,4-d]pyrimidin-7-ylamine], for which the pest or weed control at 200 ppm in series [2], in series [3], in series [4] and in series [5] was 80 to 100% in each case.

For `Cc1cc(C(F)(F)F)cc(Oc2ccc(CCNc3ncnc4scnc34)cc2)n1` [Compound 62, {2-[4-(6-methyl-4-trifluoromethylpyridin-2-yloxy)-phenyl]-ethyl}-thiazolo[5,4-d]pyrimidin-7-ylamine], the pest or weed control at 200 ppm in series [2], in series [3], in series [4] and in series [5] was 80 to 100% in each case.

Regarding `Cc1cc(Oc2cc(C(F)(F)F)ccn2)ccc1OCCNc1ncnc2scnc12` [Compound 9, {2-[2-methyl-4-(4-trifluoromethylpyridin-2-yloxy)-phenoxy]-ethyl}-thiazolo[5,4-d]pyrimidin-7-ylamine], the pest or weed control at 200 ppm in series [2], in series [3], in series [4] and in series [5] was 80 to 100% each time.

On to `Cc1cc(CCNc2ncnc3scnc23)ccc1Oc1cc(C(F)(F)F)ccn1` [Compound 23, {2-[3-methyl-4-(4-trifluoromethylpyridin-2-yloxy)-phenyl]-ethyl}-thiazolo[5,4-d]pyrimidin-7-ylamine], for which the pest or weed control at 200 ppm in series [2], in series [3], in series [4] and in series [5] was 80 to 100% each time.

For `FC(F)(F)c1cc(Oc2ccc(CCNc3ncnc4scnc34)cc2)ccn1` [Compound 40, thiazolo[5,4-d]pyrimidin-7-yl-{2-[4-(2-trifluoromethylpyridin-4-yloxy)-phenyl]-ethyl}-amine], the pest or weed control at 200 ppm in series [2], in series [3], in series [4] and in series [5] was 80 to 100% each time.

Take `COc1cc(CCNc2ncnc3scnc23)ccc1Oc1c(F)cnc(C(F)(F)F)c1F` [Compound 32, {2-[4-(3,5-difluoro-2-trifluoromethylpyridin-4-yloxy)-3-methoxyphenyl]-ethyl}-thiazolo[5,4-d]pyrimidin-7-ylamine]: the pest or weed control at 200 ppm in series [2], in series [4] and in series [5] was 80 to 100% in each case. The pest or weed control at 25 ppm in series [3] is 80 to 100%.

`COC(=O)c1cnc(Oc2ccc(CCNc3ncnc4scnc34)cc2Br)cc1C(F)(F)F` [Compound 27, 6-{2-bromo-4-[2-(thiazolo[5,4-d]pyrimidin-7-ylamino)-ethyl]-phenoxy}-4-trifluoromethyl-nicotinic acid methyl ester]: the pest or weed control at 200 ppm was 80 to 100% in series [2], 50 to 79% in series [3], 80 to 100% in series [4] and 80 to 100% in series [5].

Turning to `Cc1cc(CCNc2ncnc3scnc23)ccc1Oc1ncccc1C(F)(F)F` [Compound 24, {2-[3-methyl-4-(3-trifluoromethylpyridin-2-yloxy)-phenyl]-ethyl}-thiazolo[5,4-d]pyrimidin-7-ylamine], the pest or weed control at 200 ppm in series [2] was in the range of 50 to 79%; in series [3] it was 80 to 100%; in series [4], 80 to 100%; in series [5] it was 80 to 100%.

On to `c1ccc2c(c1)oc1ccc(CCNc3ncnc4scnc34)cc12` [Compound 44, (2-dibenzofuran-2-ylethyl)-thiazolo[5,4-d]pyrimidin-7-yl-amine], for which the pest or weed control at 200 ppm in series [2] was in the range of 80 to 100%; in series [3] it was 50 to 79%; in series [4], 0 to 49%; in series [5] it was 80 to 100%.
